Data as given in patent US20240093198A1, “TGF-BETA THERAPEUTICS FOR AGE DISEASE” (GMP BIOTECHNOLOGY LIMITED, priority 2021, published 2024).
Values after ≈ are worked out from the molar mass of the structure shown.

Columns and labels:
SARS-COV-2 USA_WA1/2020 [1] = settings: Vero 76 cells
in vitro = settings: African green monkey
SARS-COV-2 USA_WA1/2020 [2] = experiment: microbe, parasite or virus in culture; settings: Severe acute respiratory syndrome coronavirus 2, Vero 76, read-out: EC50: 50% effective antiviral concentration
SARS-COV-2 = settings: from Wang M et al., Cell Res. 2020; cited from earlier work
[3] = by day 28, p<0.0001, not with SOC alone

SMILES | SI = CC50/EC50 (Safety Index) (SARS-COV-2 USA_WA1/2020 [1]) | Safety profile (COVID-19; 80 patients on Artemisinin) | WHO severity scale (COVID-19; Day 4 and Day 5, p=0.0045 and p=0.0370) | Recovery of patients with mild-moderate COVID-19 across symptoms (fever, sore throat, dry cough, ache) (COVID-19; added to the SOC) | Decline in body temperature in comparison to SOC arm (COVID-19; by day 2) | Improvement in respiratory rate in comparison to SOC arm (COVID-19; by day 5) | Improvement in mean SpO2 level in comparison to SOC arm (COVID-19; by day 28 (end of study), p=0.029) | O2 sat (COVID-19; [3]) | respiratory rate (COVID-19; [3]) | Artemisinin-related adverse events (the only ones) (COVID-19; human, in vivo) | Changes in biochemistry or hematology parameters (COVID-19; human, in vivo) | Efficacy in words (COVID-19; human, in vivo) | Safety and tolerability (COVID-19; human, in vivo) | Reduction of WHO score on the first few doses (COVID-19; p=0.0043, n=56 PulmoHeal+SOC vs n=25 SOC) | Long term lung functions (FIG. 4) (COVID-19; patients with confirmed SARS-CoV-2 infection) | CC50 (in vitro) | EC50 (SARS-COV-2 USA_WA1/2020 [2]) | CC50 (SARS-COV-2)
C[C@@H]1CC[C@H]2[C@@H](C)C(=O)O[C@@H]3O[C@@]4(C)CC[C@@H]1[C@]32OO4 [Artemisinin] | 140 | very favorable safety profile | significant improvement over SOC | accelerated the recovery | faster and higher | faster and higher | significantly higher | fully recovered | fully recovered | transient mild rash and mild hypertension | no clinically significant changes | effective in treating subjects with mild and moderate COVID-19 | safe and well-tolerated | Almost all of WHO-4 patients achieved a reduction WHO-3 | restored long term lung functions | 61 µg/mL (≈ 216 µM) | 0.45 µg/mL (≈ 1.59 µM) | –
CCC(CC)COC(=O)[C@H](C)N[P@](=O)(OC[C@H]1O[C@@](C#N)(c2ccc3c(N)ncnn23)[C@H](O)[C@@H]1O)Oc1ccccc1 [Remdesivir] | – | – | – | – | – | – | – | – | – | – | – | – | – | – | – | – | – | > 100 µM
